Source: article PMC3265130 (ACS Chemical Biology, 2011)
Residues, ends and D or L forms follow the SMILES beside them. *: point of attachment. 5FAM = O=C1OC2(c3ccc(O)cc3Oc3cc(O)ccc32)c2ccc(C(=O)*)cc21; Ahx = NCCCCCC(=O)O; X1 = CNCC*

Key:
L3MBTL1 3xMBT = biological target: T1, L3MBTL1 3xMBT (Homo sapiens, UniProt Q9Y468); type: binding; details: site H4K20me1
T1 sequence (Q9Y468 197-526 isoform Q9Y468-1): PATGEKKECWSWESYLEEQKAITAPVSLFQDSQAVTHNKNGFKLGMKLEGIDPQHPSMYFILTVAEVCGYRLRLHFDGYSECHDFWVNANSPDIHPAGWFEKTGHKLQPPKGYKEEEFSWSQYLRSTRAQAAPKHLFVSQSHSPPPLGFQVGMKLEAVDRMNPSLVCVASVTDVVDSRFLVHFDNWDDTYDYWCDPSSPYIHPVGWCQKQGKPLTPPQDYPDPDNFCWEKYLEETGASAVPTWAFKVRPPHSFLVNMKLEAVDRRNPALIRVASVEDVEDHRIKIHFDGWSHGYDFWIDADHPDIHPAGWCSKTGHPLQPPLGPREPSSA

53BP1 Tudor domain = 53BP1 Tudor domain (Homo sapiens, UniProt Q12888); experiment: Fluorescence polarization binding of 53BP1 Tudor domain to histone H4 peptides; details: FP; result in words; methyl-lysine analogue peptide, site H4K20me2
53BP1 Tudor domain, sequence (Q12888 1484-1603): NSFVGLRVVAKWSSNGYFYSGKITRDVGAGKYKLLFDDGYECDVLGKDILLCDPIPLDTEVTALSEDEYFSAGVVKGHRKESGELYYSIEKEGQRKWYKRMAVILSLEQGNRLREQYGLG

| ΔG(KCme) (L3MBTL1 3xMBT; FP, 25 °C, binding free energy, methyl-lysine analogue peptide) | ΔΔG(exp) (L3MBTL1 3xMBT; ΔG(KCme) – ΔG(Kme) from FP Kd) [kcal/mol] | binding to the methyl-lysine analogue containing target (53BP1 Tudor domain) | Molecule |
| --- | --- | --- | --- |
| –24.6 ± 0.2 kJ/mol | 1.22 ± 0.072 |  | CC[C@H](C)[C@H](NC(=O)[C@H](CC(N)=O)NC(=O)[C@H](CC(=O)O)NC(=O)[C@H](CCCNC(=N)N)NC(=O)[C@H](CC(C)C)NC(=O)[C@@H](NC(=O)[C@H](CSCCNC)NC(=O)[C@H](CCCNC(=N)N)NC(=O)[C@H](Cc1c[nH]cn1)NC(=O)[C@H](CCCNC(=N)N)NC(=O)[C@H](CCCCN)NC(=O)[C@H](C)NC(=O)CNC(=O)CNC(=O)[C@H](CCCCN)NC(=O)CCCCCNC(=O)c1ccc2c(c1)C(=O)OC21c2ccc(O)cc2Oc2cc(O)ccc21)C(C)C)C(=O)N[C@@H](CCC(N)=O)C(N)=O [Fl-H4(12–27)KC20me1] ({5FAM-Ahx}-KGGAKRHRC(X1)VLRDNIQ-NH2) |
|  |  | no binding | fluoresceine-KGGAKRHRKC(me1)VLRDNIQ [Fl-H4(12–27)KC20me2] |
